In patent US6511978B1, “Pyrrole derivatives useful for farnesyl transferase inhibitors and their preparations” (LG Life Sciences, Ltd., priority 1999, dated 2003):
Values belong to the compound of their own block, whether it stands above or below them.

How the values were obtained:
Ras farnesyl transferase [1] = target: T1, Ras farnesyl transferase (Homo sapiens, UniProt P49354+P49356); experiment: Ras farnesyl transferase enzyme inhibition, H-Ras substrate; type: biochemical; details: H-Ras substrate protein; recombinant farnesyl transferase; 30 minutes at 37° C.
T1 construct: made in house
Excerpt: (§1) In the present experiment, the improved Pompliano's method (see: Pompliano et al., Biochemistry, 31, 3800, 1992) was applied. Specifically, Ras farnesyl transferase produced by genetic recombination techniques was used, and fused protein of H-Ras(H-Ras-CVLS) substituted with polybasic lysine domain at C-terminus of K-Ras (see: Korean Patent Appln. No. 97-14409) was used as a substrate after it had been purified according to the known method(see, Chung et al., Biochimica et Biophysica Acta, 1129, 278, 1992).
(§2) The enzyme reaction was performed in 50 μl of 50 mM Sodium HEPES buffer solution containing 25 mM of potassium chloride, 25 mM of magnesium chloride, 10 mM of DTT and 50 μM of zinc chloride. 1.5 μM of Ras substrate protein, 0.15 μM of tritium-farnesylpyrophosphate and 4.5 nM of farnesyl transferase were used. More specifically, in the initial step, farnesyl transferase was added to the above buffer solution, reaction was maintained for 30 minutes at 37° C. and then the reaction was stopped by adding 1 ml of ethanol solution containing 1M HCl. The formed precipitates were adsorbed to GF/B filter using Hopper harvestor(Hopper #FH 225V) for filter-binding, washed with ethanol, and then radioactivity of the dried filter was measured using LKB β counter. Enzyme titer was measured in the unsaturated state of substrate where the concentration of Ras substrate protein and farnesyl transferase have quantitative relationship. The compound according to the present invention dissolved in dimethyl sulfoxide(DMSO) was added to the reaction solution in an amount of less than 5% of the total reaction solution, and then the enzyme inhibitory activity thereof was measured. The enzyme inhibitory activity was represented by percentage of the amount of farnesyl incorporated into the Ras substrate protein in the presence of the test compound to that in the absence of the test compound. IC50 of the test compound was defined as the concentration at which 50% of the enzyme activity was inhibited. To evaluate the selective enzyme inhibitory activity of the compound according to the present invention, inhibitory activity on geranylgeranyl transferase was measured. Geranylgeranyl transferase was purified from bovine brain according to the modified Schaber's method(Schaber et al., J. Biol. Chem. 265, 14701, 1990), and substantially the same experimental procedure as that for farnesyl transferase was performed on geranylgeranyl pyrophosphate and Ras-CVIL substrate protein.

Ras farnesyl transferase [2] = target: T1, Ras farnesyl transferase; experiment: Ras farnesyl transferase enzyme inhibition, K-Ras substrate (H-Ras fused with polybasic lysine domain of K-Ras); type: biochemical; details: K-Ras substrate (fused protein of H-Ras with polybasic lysine domain of K-Ras); recombinant farnesyl transferase
Excerpt: as §1, §2

Ras farnesyl transferase [3] = target: T2, Ras farnesyl transferase (Rattus norvegicus, UniProt Q02293+Q04631); experiment: In vivo (intracellular) Ras farnesylation inhibition in Rat2 cell line expressing C-Harvey-Ras; type: cell-based; details: Rat2 cells expressing C-Harvey-Ras; concentration inhibiting 50% of farnesyl binding; read-out: H-Ras CIC50
T2 construct: endogenous in cells; host or cells: Rat2 fibroblasts transformed with C-Harvey-Ras or with the H-Ras/K-Ras polybasic-domain fusion
Procedure: (§3) In the present experiment, Rat2 cell line which expresses C-Harvey-Ras protein having transforming activity and Rat2 cell line(Korean patent application No. 97-14409) which is transformed with fused protein of H-Ras substituted with polybasic lysine domain at C-terminus of K-Ras were used. The experiment was performed by the modified Declue's method(Declue. J. E. et al., Cancer Research, 51, 712, 1991) as follows.
(§4) 3×10^5 cells of transformed Rat2 fibroblast cell line were sprayed on 60 mm cell cultivation dish and cultivated for 48 hours in a cell incubator at 37° C. and after 50% or more of density was reached, it was treated with the test compounds. The compound according to the present invention dissolved in dimethylsulfoxide(DMSO) was used. 1% concentration of dimethylsulfoxide was used in both control and test groups. After 4 hours from the treatment with the compound, methionine labeled with 150 μCi of radioactive isotope [^35S] per 1 ml of medium was added and after cultivating for 20 hours, the cells were washed with physiological saline water. The cells were lysed using 1 ml of cold cell lysis buffer solution(50 mM of Sodium HEPES buffer solution containing 5 mM of magnesium chloride, 1 mM of DTT, 1% NP 40, 1 mM of EDTA, 1 mM of PMSF, 2 μM of leupeptin, 2 μM of pepstatin A and 2 μM of antipain) and the supernatant wherein the cells were lysed was obtained by high-velocity centrifugation of 12,000 g×5 minutes. The amount of radioisotope in the supernatant was measured and standardized to obtain a quantitative result in immunoprecipitation reaction and then, Y13-259, a monoclonal antiboby specifically binding to Ras protein(see: Furth, M. E. et al., J. Virol, 43, 294, 1982) was added and reacted for 15 hours at 4° C. Protein A(combined with goat anti-murine immunoglobulin antibody)-agarose suspension was added to the solution and reacted for 1 hour at 4° C. and then, to remove the unspecific binding product, immunoprecipitates were washed with a buffer solution (50 mM Tris chloride buffer solution containing 50 mM of sodium chloride, 0.5% of sodium dioxycholate, 0.5% of NP 40 and 0.1% of SDS). The precipitates were added to a buffer solution for electrophoresis and boiled and then, electrophoresis was performed using 13.5% of SDS polyacrylamide gel. After electrophoresis, the gel was fixed and dried. Then, the gel was exposed to X-ray film, developed and printed. From the result of the experiment, intensities of band of protein combined with or without farnesyl of Ras protein was measured, and the concentration of the test compound inhibiting 50% of farnesyl binding was defined as CIC50, an in vivo Ras farnesyl transferase inhibitory activity. IC50 means the data from Experimental 1 and CIC50 means the data from Experimental 2.

Ras farnesyl transferase [4] = target: T2, Ras farnesyl transferase; experiment: In vivo (intracellular) Ras farnesylation inhibition in Rat2 cell line transformed with H-Ras fused with polybasic lysine domain of K-Ras; type: cell-based; details: Rat2 cells transformed with H-Ras/K-Ras polybasic domain fused protein; concentration inhibiting 50% of farnesyl binding; read-out: K-Ras CIC50
Procedure: as §3, §4

Structure (SMILES): Cc1ncn(Cc2ccc3c(c2)OCO3)c1Cn1cc(C(=O)N2CCN(C)CC2)c(-c2cccc3ccccc23)c1 [Example 16, 1-[4-methyl-1-(3,4-methylenedioxybenzyl)-1H-imidazol-5-ylmethyl]-3-(4-methylpiperazin-1-yl)carbonyl-4-(naphthalen-1-yl)-1H-pyrrole]
- IC50 (Ras farnesyl transferase [1]): < 1.5 nM
- IC50 (Ras farnesyl transferase [2]): < 2.3 nM
- IC50 (Ras farnesyl transferase [3]): > 25 nM
- IC50 (Ras farnesyl transferase [4]): > 10 µM

Structure (SMILES): CN1CCN(C(=O)c2cn(Cc3cnc(N)n3Cc3ccc4c(c3)OCO4)cc2-c2cccc3ccccc23)CC1 [Example 17, 1-[2-amino-1-(3,4-methylenedioxybenzyl)-1H-imidazol-5-ylmethyl]-3-(4-methylpiperazin-1-yl)carbonyl-4-(naphthalen-1-yl)-1H-pyrrole]
- IC50 (Ras farnesyl transferase [1]): < 1.8 nM
- IC50 (Ras farnesyl transferase [2]): < 6.4 nM
- IC50 (Ras farnesyl transferase [3]): > 25 nM
- IC50 (Ras farnesyl transferase [4]): > 10 µM

Structure (SMILES): CSc1ncc(Cn2cc(C(=O)N3CCN(C)CC3)c(-c3cccc4ccccc34)c2)n1Cc1ccc2c(c1)OCO2 [Example 18, 1-[1-(3,4-methylenedioxybenzyl)-2-methylthio-1H-imidazol-5-ylmethyl]-3-(4-methylpiperazin-1-yl)carbonyl-4-(naphthalen-1-yl)-1H-pyrrole]
- IC50 (Ras farnesyl transferase [1]): < 3.5 nM
- IC50 (Ras farnesyl transferase [2]): < 12 nM
- IC50 (Ras farnesyl transferase [3]): > 25 nM
- IC50 (Ras farnesyl transferase [4]): > 10 µM

Structure (SMILES): CSc1c(C(=O)N2CCN(C)CC2)c(-c2cccc3ccccc23)cn1Cc1cncn1Cc1ccc2c(c1)OCO2 [Example 19, 1-[1-(3,4-methylenedioxybenzyl)-1H-imidazol-5-ylmethyl]-3-(4-methylpiperazin-1-yl)carbonyl-2-methylthio-4-(naphthalen-1-yl)-1H-pyrrole]
- IC50 (Ras farnesyl transferase [1]): < 0.95 nM
- IC50 (Ras farnesyl transferase [2]): < 2 nM
- IC50 (Ras farnesyl transferase [3]): < 12.5 nM
- IC50 (Ras farnesyl transferase [4]): > 10 µM

Structure (SMILES): CN1CCN(C(=O)c2cn(Cc3c(I)ncn3Cc3ccc4c(c3)OCO4)cc2-c2cccc3ccccc23)CC1 [Example 20, 1-[4-iodo-1-(3,4-methylenedioxybenzyl)-1H-imidazol-5-ylmethyl]-3-(4-methylpiperazin-1-yl)carbonyl-4-(naphthalen-1-yl)-1H-pyrrole]
- IC50 (Ras farnesyl transferase [1]): < 3.5 nM
- IC50 (Ras farnesyl transferase [2]): < 18 nM
- IC50 (Ras farnesyl transferase [3]): > 25 nM
- IC50 (Ras farnesyl transferase [4]): > 10 µM

Structure (SMILES): CN1CCN(C(=O)c2cn(Cc3c([N+](=O)[O-])ncn3Cc3ccc4c(c3)OCO4)cc2-c2cccc3ccccc23)CC1 [Example 21, 1-[1-(3,4-methylenedioxybenzyl)-4-nitro-1H-imidazol-5-ylmethyl]-3-(4-methylpiperazin-1-yl)carbonyl-4-(naphthalen-1-yl)-1H-pyrrole]
- IC50 (Ras farnesyl transferase [1]): > 30 nM
- IC50 (Ras farnesyl transferase [2]): > 30 nM
- IC50 (Ras farnesyl transferase [3]): > 30 nM
- IC50 (Ras farnesyl transferase [4]): > 10 µM

Structure (SMILES): CN1CCN(C(=O)c2cn(Cc3c(N)ncn3Cc3ccc4c(c3)OCO4)cc2-c2cccc3ccccc23)CC1 [Example 22, 1-[4-amino-1-(3,4-methylenedioxybenzyl)-1H-imidazol-5-ylmethyl]-3-(4-methylpiperazin-1-yl)carbonyl-4-(naphthalen-1-yl)-1H-pyrrole]
- IC50 (Ras farnesyl transferase [1]): < 2.7 nM
- IC50 (Ras farnesyl transferase [2]): < 30 nM
- IC50 (Ras farnesyl transferase [3]): > 25 nM
- IC50 (Ras farnesyl transferase [4]): > 10 µM

Other lines, results leading:

- IC50 (Ras farnesyl transferase [1]): < 22 nM
- IC50 (Ras farnesyl transferase [2]): > 30 nM
- IC50 (Ras farnesyl transferase [3]): > 30 nM
- IC50 (Ras farnesyl transferase [4]): > 10 µM
Structure (SMILES): CON1CCN(C(=O)c2cn(Cc3c(C)ncn3Cc3ccc4c(c3)OCO4)cc2-c2cccc3ccccc23)CC1 [Example 23, 3-(4-methoxypiperazin-1-yl)carbonyl-1-[4-methyl-1-(3,4-methylenedioxybenzyl)-1H-imidazol-5-ylmethyl]-4-(naphthalen-1-yl)-1H-pyrrole]

- IC50 (Ras farnesyl transferase [1]): < 4.45 nM
- IC50 (Ras farnesyl transferase [2]): < 7 nM
- IC50 (Ras farnesyl transferase [3]): > 25 nM
- IC50 (Ras farnesyl transferase [4]): < 10 µM
Structure (SMILES): Cc1c(C(=O)N2CCN(C)CC2)c(-c2cccc3ccccc23)cn1Cc1cncn1Cc1ccc2c(c1)OCO2 [Example 24, 2-methyl-1-[1-(3,4-methylenedioxybenzyl)-1H-imidazol-5-ylmethyl]-3-(4-methylpiperazin-1-yl)carbonyl-4-(naphthalen-1-yl)-1H-pyrrole]

- IC50 (Ras farnesyl transferase [1]): < 2 nM
- IC50 (Ras farnesyl transferase [2]): < 6 nM
- IC50 (Ras farnesyl transferase [3]): < 10 nM
- IC50 (Ras farnesyl transferase [4]): < 5 µM
Structure (SMILES): CCSc1c(C(=O)N2CCN(C)CC2)c(-c2cccc3ccccc23)cn1Cc1cncn1Cc1ccc2c(c1)OCO2 [Example 25, 2-ethylthio-1-[1-(3,4-methylenedioxybenzyl)-1H-imidazol-5-ylmethyl]-3-(4-methylpiperazin-1-yl)carbonyl-4-(naphthalen-1-yl)-1H-pyrrole]

- IC50 (Ras farnesyl transferase [1]): < 2 nM
- IC50 (Ras farnesyl transferase [2]): < 6.5 nM
- IC50 (Ras farnesyl transferase [3]): < 25 nM
- IC50 (Ras farnesyl transferase [4]): > 10 µM
Structure (SMILES): COc1ccccc1CCn1c(Cn2cc(C(=O)N3CCN(C)CC3)c(-c3cccc4ccccc34)c2)cnc1C [Example 26, 1-[1-(2-methoxyphenethyl)-2-methyl-1H-imidazol-5-ylmethyl]-3-(4-methylpiperazin-1-yl)carbonyl-4-(naphthalen-1-yl)-1H-pyrrole]

- IC50 (Ras farnesyl transferase [1]): < 3 nM
- IC50 (Ras farnesyl transferase [2]): > 20 nM
- IC50 (Ras farnesyl transferase [3]): < 25 nM
- IC50 (Ras farnesyl transferase [4]): > 10 µM
Structure (SMILES): CCOCCCn1c(Cn2cc(C(=O)N3CCN(C)CC3)c(-c3cccc4ccccc34)c2)cnc1C [Example 27, 1-[1-(3-ethoxypropyl)-2-methyl-1H-imidazol-5-ylmethyl]-3-(4-methylpiperazin-1-yl)carbonyl-4-(naphthalen-1-yl)-1H-pyrrole]

- IC50 (Ras farnesyl transferase [1]): < 2.2 nM
- IC50 (Ras farnesyl transferase [2]): < 3.2 nM
- IC50 (Ras farnesyl transferase [3]): < 6.25 nM
- IC50 (Ras farnesyl transferase [4]): < 10 µM
Structure (SMILES): CCOCCCn1cnc(C)c1Cn1cc(C(=O)N2CCN(C)CC2)c(-c2cccc3ccccc23)c1 [Example 28, 1-[1-(3-ethoxypropyl)-4-methyl-1H-imidazol-5-ylmethyl]-3-(4-methylpiperazin-1-yl)carbonyl-4-(naphthalen-1-yl)-1H-pyrrole]

- IC50 (Ras farnesyl transferase [1]): < 2.45 nM
- IC50 (Ras farnesyl transferase [2]): < 2.7 nM
- IC50 (Ras farnesyl transferase [3]): < 6.25 nM
- IC50 (Ras farnesyl transferase [4]): < 10 µM
Structure (SMILES): Cc1ncn(CCCOCc2ccccc2)c1Cn1cc(C(=O)N2CCN(C)CC2)c(-c2cccc3ccccc23)c1 [Example 29, 1-[1-(3-benzyloxypropyl)-4-methyl-1H-imidazol-5-ylmethyl]-3-(4-methylpiperazin-1-yl)carbonyl-4-(naphthalen-1-yl)-1H-pyrrole]

- IC50 (Ras farnesyl transferase [1]): < 5 nM
- IC50 (Ras farnesyl transferase [2]): < 2.1 nM
- IC50 (Ras farnesyl transferase [3]): < 12.5 nM
- IC50 (Ras farnesyl transferase [4]): < 10 µM
Structure (SMILES): COCCN(C)C(=O)c1cn(Cc2c(C)ncn2CCCOCc2ccccc2)cc1-c1cccc2ccccc12 [Example 30, 1-[1-(3-benzyloxypropyl)-4-methyl-1H-imidazol-5-ylmethyl]-3-[N-(2-methoxyethyl)-N-methyl]carbamoyl-4-(naphthalen-1-yl)-1H-pyrrole]
